Data reported in ChEMBL document CHEMBL1201862, “PubChem BioAssay data set” (2004).
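A five-concentration, 48-hour dose response in 96-well plates underlies each endpoint, interpolated linearly between surrounding concentrations. Here, GI50 denotes the concentration required for 50% inhibition of growth.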 The source made the active and inactive calls. No stated cut-off is given here; in the data, active = GI50 up to about 1.1 µM and inactive = higher.

How the values were obtained:
Assay in all cases: NCI-60 cell line screen, 48 h
SF-295 = test system: SF-295
UACC-62 = test system: UACC-62
OVCAR-5 = test system: OVCAR-5
SNB-75 = test system: SNB-75
OVCAR-3 = test system: OVCAR-3
KM12 = test system: KM12
NCI-H23 = test system: NCI-H23
SF-268 = test system: SF-268
U-251 = test system: U-251
IGROV-1 = test system: IGROV-1
SK-MEL-5 = test system: SK-MEL-5
HCT-15 = test system: HCT-15
UACC-257 = test system: UACC-257
CCRF-CEM = test system: CCRF-CEM
EKVX = test system: EKVX

Compound | GI50 (SF-295) | GI50 (UACC-62) | GI50 (OVCAR-5) | GI50 (SNB-75) | GI50 (OVCAR-3) | GI50 (KM12) | GI50 (NCI-H23) | GI50 (SF-268) | GI50 (U-251) | GI50 (IGROV-1) | GI50 (SK-MEL-5) | GI50 (HCT-15) [µM] | GI50 (UACC-257) | GI50 (CCRF-CEM) | GI50 (EKVX)
O=S(=O)(c1ccccc1)n1cnc(CCc2ccccc2)n1 | > 100 µM (inactive) | > 100 µM (inactive) | > 100 µM (inactive) | 45.1 µM (inactive) | > 100 µM (inactive) | > 100 µM (inactive) | > 100 µM (inactive) | > 100 µM (inactive) | > 100 µM (inactive) | > 100 µM (inactive) | > 100 µM (inactive) | > 100 | > 100 µM (inactive) | > 100 µM (inactive) | 
COC1=CC(=O)c2c(cc3c(c2O)-c2c(OC)cc4cc5c(c(O)c4c2OC(=O)CC(C)(O)C3)C(=O)CC(C)(O)C5)C1=O (stereo not given) | 1.44 µM (inactive) | 1.19 µM (inactive) | 2.14 µM (inactive) | 1.29 µM (inactive) | 0.577 µM (active) | 2.41 µM (inactive) | 0.624 µM (active) | 2.97 µM (inactive) | 2.77 µM (inactive) | 1.9 µM (inactive) | 0.237 µM (active) | 1.95 | 1.76 µM (inactive) | 1.95 µM (inactive) | 2.27 µM (inactive)
COc1ccc2c(c1)OCCCN(C)OC2c1ccccc1 (stereo not given) | > 100 µM (inactive) | > 100 µM (inactive) | > 100 µM (inactive) | > 100 µM (inactive) | > 100 µM (inactive) | > 100 µM (inactive) | > 100 µM (inactive) | > 100 µM (inactive) | > 100 µM (inactive) | > 100 µM (inactive) | > 100 µM (inactive) | > 100 | > 100 µM (inactive) |  | > 100 µM (inactive)
O=C1/C(=N\O)S(=O)(=O)c2ccccc21 | > 100 µM (inactive) | > 100 µM (inactive) | > 100 µM (inactive) | > 100 µM (inactive) |  | > 100 µM (inactive) |  | > 100 µM (inactive) | > 100 µM (inactive) | > 100 µM (inactive) | > 100 µM (inactive) | > 100 | > 100 µM (inactive) | > 100 µM (inactive) | 
C[n+]1c2ccccc2c(/C=N\NS(=O)(=O)c2ccc(O)c(C(=O)O)c2)c2ccccc21 | > 100 µM (inactive) | 49.3 µM (inactive) | > 100 µM (inactive) | 34.2 µM (inactive) | 49.1 µM (inactive) | 60.3 µM (inactive) | 91.4 µM (inactive) | 40.7 µM (inactive) | 94 µM (inactive) | 58.5 µM (inactive) | 39.8 µM (inactive) | 38.7 | > 10 µM (inactive) | 21.8 µM (inactive) | 78.9 µM (inactive)
CCCN1C(=O)C/C(=C\C(C)=O)Nc2ccccc21 | > 100 µM (inactive) | > 100 µM (inactive) | > 100 µM (inactive) | > 100 µM (inactive) | > 100 µM (inactive) | > 100 µM (inactive) | > 100 µM (inactive) | > 100 µM (inactive) | > 100 µM (inactive) | > 100 µM (inactive) | > 100 µM (inactive) | > 100 |  | > 100 µM (inactive) | > 100 µM (inactive)
O=C1C2Cc3ccccc3CN2C(=O)N1CCN1CCOCC1 (stereo not given) | > 100 µM (inactive) | > 100 µM (inactive) | > 100 µM (inactive) |  | > 100 µM (inactive) | > 100 µM (inactive) | > 100 µM (inactive) | > 100 µM (inactive) | > 100 µM (inactive) | > 100 µM (inactive) | > 100 µM (inactive) | > 100 |  | > 100 µM (inactive) | 
O=C(c1ccccc1)c1c(-c2ccccc2)sc2nc3ccccc3nc12 | 52.7 µM (inactive) | > 100 µM (inactive) | > 100 µM (inactive) | 32.8 µM (inactive) | > 100 µM (inactive) | > 100 µM (inactive) | > 100 µM (inactive) | > 100 µM (inactive) | > 100 µM (inactive) | > 100 µM (inactive) | 80.9 µM (inactive) | > 100 | > 100 µM (inactive) | > 100 µM (inactive) | > 100 µM (inactive)
N=C(N)NS(=O)(=O)c1ccc(Nc2c3ccccc3nc3c(C(=O)Nc4ccc(S(N)(=O)=O)cc4)cccc23)cc1 | > 100 µM (inactive) | 93.3 µM (inactive) | > 100 µM (inactive) | 42.1 µM (inactive) | 36.8 µM (inactive) | > 100 µM (inactive) | > 100 µM (inactive) | 98.9 µM (inactive) | 94.2 µM (inactive) | > 100 µM (inactive) | 78.9 µM (inactive) | > 100 | > 100 µM (inactive) | 71.3 µM (inactive) | > 100 µM (inactive)
Cc1ccc(C(=O)/C=C/c2cccc([N+](=O)[O-])c2)cc1 | 55.5 µM (inactive) | > 100 µM (inactive) |  | > 47.3 µM (inactive) | 54.1 µM (inactive) | 24.1 µM (inactive) | > 74.5 µM (inactive) | > 67.5 µM (inactive) | 22.2 µM (inactive) | > 67.9 µM (inactive) | > 100 µM (inactive) | 21.6 | > 100 µM (inactive) | 29.1 µM (inactive) | > 100 µM (inactive)
COc1ccccc1/C=C(\C#N)c1ccccc1 | 52.7 µM (inactive) | 44.9 µM (inactive) | > 100 µM (inactive) | 25.9 µM (inactive) | 19.5 µM (inactive) | 18.5 µM (inactive) | 41.5 µM (inactive) | 82.8 µM (inactive) | 24.6 µM (inactive) | 43.3 µM (inactive) | 16.7 µM (inactive) | 18.4 | 31.1 µM (inactive) | 17.7 µM (inactive) | 
COC(=O)C(=O)C(C#N)c1c(Cl)cccc1Cl (stereo not given) | > 100 µM (inactive) | > 100 µM (inactive) | > 100 µM (inactive) | > 100 µM (inactive) | > 100 µM (inactive) |  | > 100 µM (inactive) | > 100 µM (inactive) |  | > 100 µM (inactive) | > 100 µM (inactive) | > 100 | > 100 µM (inactive) |  | > 100 µM (inactive)
CN(C)CCCNc1ccnc2c([N+](=O)[O-])cccc12 | 20.9 µM (inactive) |  | > 10 µM (inactive) |  | 3.56 µM (inactive) | 24.9 µM (inactive) | 14.6 µM (inactive) | 19.1 µM (inactive) | 30.2 µM (inactive) |  |  | 22.2 | 15.5 µM (inactive) | 34.3 µM (inactive) | 10.5 µM (inactive)
O=C(c1ccccc1)c1oc2ccc(Br)cc2c1-c1cnn(-c2ccccc2)c1 | > 100 µM (inactive) | > 100 µM (inactive) | > 100 µM (inactive) | > 100 µM (inactive) | > 100 µM (inactive) | > 100 µM (inactive) | > 100 µM (inactive) | > 100 µM (inactive) |  | > 100 µM (inactive) | > 10 µM (inactive) | > 100 | > 100 µM (inactive) | > 100 µM (inactive) | > 10 µM (inactive)
ClCCCCOC1CCCCO1 (stereo not given) | > 100 µM (inactive) | > 100 µM (inactive) | > 100 µM (inactive) | > 100 µM (inactive) | > 100 µM (inactive) | > 100 µM (inactive) | > 100 µM (inactive) | > 100 µM (inactive) | > 100 µM (inactive) | > 100 µM (inactive) | > 100 µM (inactive) | > 100 | > 100 µM (inactive) |  | > 100 µM (inactive)
